# Legend:
# Rat Liver DHFR = target: T1, Rat Liver DHFR (Rattus norvegicus, UniProt Q920D2); experiment: biochemical; conditions: DHFR enzyme activity, P95 limits in parentheses
# T1 sequence (Q920D2 1-187): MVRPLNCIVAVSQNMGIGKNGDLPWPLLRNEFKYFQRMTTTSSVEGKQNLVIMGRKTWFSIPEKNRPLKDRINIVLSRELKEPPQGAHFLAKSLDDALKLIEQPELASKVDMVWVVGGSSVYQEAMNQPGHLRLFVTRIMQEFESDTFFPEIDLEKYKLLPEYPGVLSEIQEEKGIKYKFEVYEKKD
# Method: (§1) Compounds of Formula (I) were tested for their effect on veratrine-evoked release of glutamate from rat brain slices according to the protocol described in Epilepsia 27(5): 490-497, 1986. The protocol for testing for inhibition of DHFR activity was a modification of that set out in Biochemical Pharmacology Vol. 20 pp 561-574, 1971.
# [1] = system: veratrine-evoked release of glutamate from rat brain slices; experiment: tissue or blood; assay type: cell-based; conditions: P95 limits in parentheses
# Method: as §1
# [2] = system: release of the excitatory amino acid glutamate; conditions: statement in words; Leach et al Epilepsia 27, 490-497 1986; Miller et al 1987; cited from earlier work
# [3] = system: release of the excitatory amino acid aspartate; conditions: statement in words; Leach et al Epilepsia 27, 490-497 1986; Miller et al 1987; cited from earlier work
# [4] = Toxicology, once daily intravenous administration to Wistar rats; conditions: rat, in vivo, dose levels of upto 15 mg/kg/day, read-out: no observed effect dose
# Method: The compound of Example 1 has been administered intravenously to groups of six male and six female Wistar rats once daily at dose levels of upto 15 mg/kg/day. The no observed effect dose was 2.5 mg/kg/day.
# Toxicology in rats = conditions: rat, in vivo, read-out: no observed effect dose
# Method: (§2) The compound of Example 2, has been tested in both rats and dogs. In rats the no observed effect dose was 2.5 mg/kg/day and in dogs, the no observed effect dose was 14 mg/kg/day.
# in vivo = experiment: in vivo; parameters: species or system dogs; conditions: dog
# Method: as §2
# [5] = Duration of action / clearance from the central nervous system (statement); conditions: statement in words
Structure (SMILES),IC50 (Rat Liver DHFR) [µM],IC50 [1] [µM],other results
"Cc1nc(N2CCN(C)CC2)nc(N)c1-c1cc(Cl)cc(Cl)c1Cl [Example 11, 4-Amino-6-methyl-2-(4-methylpiperazin-1-yl)-5-(2,3,5-trichlorophenyl)pyrimidine]",> 100,4.8,–
"Nc1ncc(-c2cccc3ccccc23)c(N)n1 [Example 17, 2,4-Diamino-5-(1-naphthyl)pyrimidine]",4.9,2.4,–
"Nc1nc(N)c(-c2cccc(Cl)c2Cl)c(C(F)(F)F)n1 [Example 14, 2,4-Diamino-5-(2,3-dichlorophenyl)-6-trifluoromethylpyrimidine]",> 100,3.1,–
"Nc1ncc(-c2cc(Cl)c([N+](=O)[O-])c(Cl)c2Cl)c(N)n1 [Example 5, 2,4-Diamino-5-(4-nitro-2,3,5-trichlorophenyl)pyrimidine]",~100,3.5,–
"Cc1nc(N)nc(N)c1-c1cccc(Cl)c1Cl [Example 15, 2,4-Diamino-5-(2,3-dichlorophenyl)-6-methylpyrimidine]",8.7,2.7,–
"Nc1ncc(-c2cccc(Cl)c2Cl)c(N)n1 [Example 21, 2,4-Diamino-5-(2,3-dichlorophenyl)pyrimidine]",16,11.5,–
"Cc1nc(N(C)C)nc(N)c1-c1cc(Cl)cc(Cl)c1Cl [Example 13, 4-Amino-2-(N,N-dimethylamino)-6-methyl-5-(2,3,5-trichlorophenyl)pyrimidine]",> 100,< 10,–
"Cc1nc(N)nc(N)c1-c1cc(Cl)cc(Cl)c1Cl [Example 6, 2,4-Diamino-5-(2,3,5-trichlorophenyl)-6-methylpyrimidine]",0.51,0.7,–
"Nc1nc(N)c(-c2ccc(Cl)cc2Cl)c(C(F)(F)F)n1 [Example 25, 2,4-Diamino-5-(2,4-dichlorophenyl)-6-trifluoromethylpyrimidine]",> 100,4.1,–
"Nc1nc(N)c(-c2cc(Cl)cc(Cl)c2Cl)c(C(F)(F)F)n1 [Example 4, 2,4-Diamino-5-(2,3,5-trichlorophenyl)-6-trifluoromethylpyrimidine]",> 100,0.33,–
"Nc1nnc(-c2cccc(Cl)c2Cl)c(N)n1 [lamotrigine, 3,5-diamino-6-(2,3-dichlorophenyl)-1,2,4-triazine]",–,–,inhibition of the release of glutamate [2]: shown to inhibit the release; inhibition of the release of aspartate [3]: shown to inhibit the release
"CN1CCN(c2nc(N)c(-c3cc(Cl)cc(Cl)c3Cl)c(C(F)(F)F)n2)CC1 [Example 1, 4-Amino-2-(4-methylpiperazin-1-yl)-5-(2,3,5-trichlorophenyl)-6-trifluoromethylpyrimidine]",> 100,1.18,NOAEL [4]: 2.5 mg/kg/day
"CSCc1nc(N)nc(N)c1-c1cccc(Cl)c1Cl [Example 20, 2,4-Diamino-5-(2,3-dichlorophenyl)-6-methylthiomethylpyrimidine]",17.5,4.2,–
"CN(C)c1nc(N)c(-c2cc(Cl)cc(Cl)c2Cl)c(C(F)(F)F)n1 [Example 8, 4-Amino-2-N,N-dimethylamino-5-(2,3,5-trichlorophenyl)-6-trifluoromethylpyrimidine]",> 10,< 10,–
"Nc1nc(N)c(-c2cc(Cl)ccc2Cl)c(C(F)(F)F)n1 [Example 28, 2,4-Diamino-5-(2,5-dichlorophenyl)-6-trifluoromethylpyrimidine]",46.1,4.6,–
"Nc1nc(N)c(-c2cccc(Cl)c2Cl)c(CF)n1 [Example 18, 2,4-Diamino-5-(2,3-dichlorophenyl)-6-fluoromethylpyrimidine]",~100,< 10,–
"Nc1nc(N)c(-c2ccc(Cl)cc2Cl)c(COCc2ccccc2)n1 [Example 26, 6-Benzyloxymethyl-2,4-diamino-5-(2,4-dichlorophenyl)pyrimidine]",~10,~3,–
"CN(C)c1ncc(-c2cc(Cl)cc(Cl)c2Cl)c(N)n1 [Example 10, 4-Amino-2-N,N-dimethylamino-5-(2,3,5-trichlorophenyl)pyrimidine]",> 100,< 10,–
"Nc1nc(N2CCOCC2)nc(C(F)(F)F)c1-c1cc(Cl)cc(Cl)c1Cl [Example 7, 4-Amino-2-N-morpholino-5-(2,3,5-trichlorophenyl)-6-trifluoromethylpyrimidine]",> 10,< 10,–
"COCc1nc(N)nc(N)c1-c1cc(Cl)cc(Cl)c1Cl [Example 2, 2,4-Diamino-5-(2,3,5-trichlorophenyl)-6-methoxymethylpyrimidine]",33,0.56,NOAEL (Toxicology in rats): 2.5 mg/kg/day; NOAEL (in vivo): 14 mg/kg/day; clearance from the central nervous system [5]: cleared from the central nervous system rapidly
"Nc1ncc(-c2cc(Cl)cc(Cl)c2Cl)c(N)n1 [Example 29, 2,4-Diamino-5-(2,3,5-trichlorophenyl)pyrimidine]",0.53,1.57,–
"Cc1nc(N)nc(N)c1-c1ccccc1Cl [Example 22, 2,4-Diamino-5-(2-chlorophenyl)-6-methyl-pyrimidine]",23.8,2.8,–
"COCc1nc(N)nc(N)c1-c1cccc(Cl)c1Cl [Example 16, 2,4-Diamino-5-(2,3-dichlorophenyl)-6-methoxymethylpyrimidine]",> 100,3.2,–
"Nc1nc(N2CCOCC2)ncc1-c1cc(Cl)cc(Cl)c1Cl [Example 9, 4-Amino-2-N-morpholino-5-(2,3,5-trichlorophenyl)-pyrimidine]",> 100,< 10,–
"Nc1ncc(-c2ccccc2Cl)c(N)n1 [Example 23, 2,4-Diamino-5-(2-chlorophenyl)pyrimidine]",20.9,8.7,–
"Cc1nc(N)nc(N)c1-c1cc(Cl)c([N+](=O)[O-])c(Cl)c1Cl [Example 12, 2,4-diamino-6-methyl-5-(2,3,5-trichloro-4-nitrophenyl) pyrimidine]",> 100,< 10,–
"Nc1nc(N)c(-c2cccc(Cl)c2Cl)c(COc2ccccc2)n1 [Example 19, 2,4-Diamino-5-(2,3-dichlorophenyl)-6-phenoxymethylpyrimidine]",> 100,2.6,–
"CCc1nc(N)nc(N)c1-c1ccccc1Cl [Example 24, 2,4-Diamino-5-(2-chlorophenyl)-6-ethylpyrimidine]",15.1,2.1,–
"CN1CCN(c2ncc(-c3ccc(Cl)cc3Cl)c(N)n2)CC1 [Example 27, 2-(4-methylpiperazin-1-yl)-4-amino-5-(2,4-dichlorophenyl)pyrimidine]",> 100,~10,–
